Source: patent US7745489B2, “Compositions and methods for inhibition of phospholipase A2 mediated inflammation” (The Regents of the University of California, priority 2002, dated 2010)
Entries after “also recorded” stand apart in the source; their conditions may differ. One block for each molecule: values may come before it.

Target: T1, cPLA2 (Homo sapiens, UniProt P47712)
T1 sequence (P47712 1-749): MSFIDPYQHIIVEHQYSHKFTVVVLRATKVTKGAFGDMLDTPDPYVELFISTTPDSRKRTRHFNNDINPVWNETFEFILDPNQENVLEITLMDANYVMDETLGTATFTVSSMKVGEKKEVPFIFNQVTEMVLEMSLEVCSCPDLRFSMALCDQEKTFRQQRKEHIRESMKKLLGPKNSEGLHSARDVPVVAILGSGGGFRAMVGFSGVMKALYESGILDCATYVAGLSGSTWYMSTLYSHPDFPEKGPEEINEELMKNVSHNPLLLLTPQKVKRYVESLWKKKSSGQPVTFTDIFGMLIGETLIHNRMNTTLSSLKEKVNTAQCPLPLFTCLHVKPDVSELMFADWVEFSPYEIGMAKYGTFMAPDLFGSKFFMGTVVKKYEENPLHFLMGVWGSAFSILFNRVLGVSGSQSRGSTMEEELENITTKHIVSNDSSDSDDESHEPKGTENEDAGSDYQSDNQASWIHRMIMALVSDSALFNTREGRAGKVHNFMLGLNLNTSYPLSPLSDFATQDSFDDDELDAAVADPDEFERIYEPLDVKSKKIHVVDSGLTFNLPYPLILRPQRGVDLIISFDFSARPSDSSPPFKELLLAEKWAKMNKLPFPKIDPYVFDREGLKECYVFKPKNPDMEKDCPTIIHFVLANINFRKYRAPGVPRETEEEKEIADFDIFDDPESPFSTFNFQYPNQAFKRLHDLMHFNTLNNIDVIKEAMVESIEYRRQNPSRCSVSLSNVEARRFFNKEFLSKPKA
Assay: cPLA2 activity on TX-100/PAPC mixed micelles, inhibition by 2-oxoamides
Assay type: biochemical
Details: for XI(50) (mole fraction) / Highest Conc. (mole fraction) w/ % inhibition: Table 2, iPLA2; for Inhibitory potency relative to OA4 (fold less potent): cPLA2, compared with OA4; for XI(50): mixed micelles TX-100 400 μM, PAPC 97 μM, PIP2 3 μM (0.6 mole %); for Inhibition of cPLA2: result in words

- XI(50) (mole fraction): 0.027 ± 0.004 mole fraction
- Inhibitory potency relative to OA4 (fold less potent): around 3 fold
Compound: CCCCCCCCCCCCCC(=O)C(=O)N[C@@H](CCCC)CC(=O)O [OA3, (3S)-(2-Oxo-pentadecanoylamino)-heptanoic Acid]

- XI(50) (mole fraction): 0.008 ± 0.003 mole fraction
- Inhibitory potency relative to OA4 (fold less potent): essentially equivalent
Compound: CCCCCCCCCCCCCC(=O)C(=O)N[C@@H](CCCC)CCCC(=O)O [OA5, (5S)-5-(2-Oxopentadecanoylamino)-nonanoic Acid]

- XI(50) (mole fraction): 0.018 ± 0.009 mole fraction
- Inhibitory potency relative to OA4 (fold less potent): around 2 fold
Compound: CCCCCCCCCCC(=O)C(=O)N[C@@H](CCCC)CCCCC(=O)O [OA6, (6S)-6-(2-Oxo-dodecanoylamino)-decanoic Acid]

- XI(50) (mole fraction): 0.068 ± 0.005 mole fraction
- XI(50): 0.068±0.005 mole fraction
Compound: CCCCCCCCCCC(=O)C(=O)N[C@H](CCCC)CCC(=O)O [OA7, (4R)-4-[(2-Oxododecanoyl)amino]octanoic acid]

- Highest Conc. (mole fraction) w/ % inhibition (at 0.02 mole fraction): 0.02; 22% ± 7%
Compound: CCNC(=O)C(=O)CC [OA8]

- XI(50) (mole fraction): 0.035 ± 0.016 mole fraction
Compound: CCCCCCCCCCCCCC(=O)C(=O)N[C@H](CCC(=O)O)Cc1ccccc1 [OA9, (4R)-4-(2-Oxo-pentadecanoylamino)-5-phenyl-pentanoic Acid]

- XI(50) (mole fraction): 0.045 ± 0.007 mole fraction
- XI(50): 0.045±0.007 mole fraction
Compound: CCOC[C@H](CCC(=O)O)NC(=O)C(=O)CC [OA10]

- XI(50) (mole fraction): 0.047 ± 0.006 mole fraction
- XI(50): 0.047±0.006 mole fraction
Compound: CCCCCCCCCCOC[C@@H](CCC(=O)O)NC(=O)C(=O)CCCCCCCCCC [OA11, (4R)-5-(Decyloxy)-4-[(2-oxododecanoyl)amino]pentanoic Acid]

- XI(50) (mole fraction): 0.017 ± 0.006 mole fraction
Compound: CCCCCCCCCCCCCC(=O)C(=O)N[C@H](CCC(=O)O)CC(C)C [OA12, (4R)-6-Methyl-4-(2-oxo-pentadecanoylamino)-heptanoic Acid]

- XI(50) (mole fraction): 0.033 ± 0.013 mole fraction
Compound: CCCCCCCCCCC(=O)C(=O)N[C@H](CCC(=O)O)CC(C)C [OA13, (4R)-6-Methyl-4-(2-oxo-dodecanoylamino)-heptanoic Acid]

- XI(50) (mole fraction): 0.044 ± 0.007 mole fraction
- Inhibition of cPLA2: moderate level of inhibition
Compound: CCCCCCCCCCCCCCC(=O)C(=O)N[C@@H](CCC(=O)O)C(=O)NCCCCCCCCCC [OA15, 4-Decylcarbamoyl-4-(S)-(2-oxo-hexadecanoylamino)-butyric Acid]

- Highest Conc. (mole fraction) w/ % inhibition (at 0.091 mole fraction): 0.091, 60%
- Inhibition of cPLA2: essentially no measurable inhibition
Compound: CCCCCCCCCCC(=O)C(=O)N[C@@H](CCC(=O)O)COC(=O)NCCCCCCCC [OA16, 5-octylcarbamoyloxy-4-(S)-(2-oxo-dodecanoylamino)-pentanoic Acid]

- Highest Conc. (mole fraction) w/ % inhibition (at 0.091 mole fraction): 0.091; 24%
Compound: CCCCCCC(=O)C(=O)N[C@H](CCC(=O)O)Cc1ccccc1 [OA17, (4R)-4-(2-Oxo-octanoylamino)-5-phenyl-pentanoic Acid]

- Highest Conc. (mole fraction) w/ % inhibition (at 0.091 mole fraction): 0.091; 24%
Compound: CCCCCCCCCCCCCC(=O)C(=O)N1CCCC1CCC(=O)O (stereo not shown) [OA18, 3-[1-(2-Oxo-pentadecanoyl)-pyrrolidin-2-yl]propionic Acid]

Compound: CCCCCCCCCCC(=O)C(=O)N[C@@H](CCC(=O)O)C(=O)NCC [OA29, 4-Ethylcarbamoyl-4-(S)-(2-oxo-dodecanoylamino)-butyric Acid]
- Inhibition of cPLA2: did not inhibit; also recorded: essentially no measurable inhibition

Compound: CCCCCCCCCCC(=O)C(=O)N[C@@H](CCC(=O)O)COC(=O)NCC [OA30, 5-ethylcarbamoyloxy-4-(S)-(2-oxo-dodecanoylamino)-pentanoic Acid]
- Inhibition of cPLA2: does not inhibit; also recorded: essentially no measurable inhibition

- Inhibition of cPLA2: essentially no measurable inhibition
Compound: CCCCCCCCCCC(=O)C(=O)N[C@H](CCC(=O)O)C(=O)NCC [OA31, 4-Ethylcarbamoyl-4-(R)-(2-oxo-dodecanoylamino)-butyric Acid]
